Results reported in patent publication US20170097349A1 (priority 2010, published 2017).

System: whole blood from TB-reactor and BCG-vaccinated animals (IFN-γ response)
Type: cell-based, cattle

| Substance | recognition in TB-reactor animals not responding to peptides #42 or #55 | further results |
| --- | --- | --- |
| EAEHQAIIRDVLTASDFWGG [compound 29] | recognised in TB-reactor animals that failed to respond to peptides #42 or #55 | – |
| SAELPDWLAANRGLAPGGHA [peptide #64] | recognised in TB-reactor animals that failed to respond to peptides #42 or #55 | immunogenicity in BCG-vaccinated animals on re-screen of Sec#1 components: immunogenic in some BCG-vaccinated animals |
| QANLGEAAGTYVAADAAAAS [peptide #55] | – | responder frequency, TB-reactor animals: 36% |
| RDVLAAGDFWGGAGSVACQE [peptide #42] | – | responder frequency, TB-reactor animals: 50% |
| LGRNFQVIYEQANAHGQKVQ [peptide #33] | recognised in TB-reactor animals that failed to respond to peptides #42 or #55 | – |
| Staphylococcal enterotoxin B [SEB, reference compound] | – | IFN-γ response in TB-reactor and BCG-vaccinated animals: all TB-reactor and BCG-vaccinated animals responded |
| RNIVNMLHGVRDGLVRDANN [compound 20] | recognised in TB-reactor animals that failed to respond to peptides #42 or #55 | – |
